Source: paper PMC4301037, “Identification and Structure–Function Analysis of Subfamily Selective G Protein-Coupled Receptor Kinase Inhibitors” (ACS Chemical Biology, 2014)
Where two headings read alike, the source gives them in different places.

Columns and labels:
[1] = target: T1, GRK2 (Bos taurus, UniProt P21146, S670A); experiment: In vitro phosphorylation assay (tubulin, 5 μM ATP), GRK2; type: biochemical, bovine; settings: for IC50: read-out: GRK2 log IC50 (converted)
T1 construct: made in house
T1 sequence (P21146 1-689 S670A): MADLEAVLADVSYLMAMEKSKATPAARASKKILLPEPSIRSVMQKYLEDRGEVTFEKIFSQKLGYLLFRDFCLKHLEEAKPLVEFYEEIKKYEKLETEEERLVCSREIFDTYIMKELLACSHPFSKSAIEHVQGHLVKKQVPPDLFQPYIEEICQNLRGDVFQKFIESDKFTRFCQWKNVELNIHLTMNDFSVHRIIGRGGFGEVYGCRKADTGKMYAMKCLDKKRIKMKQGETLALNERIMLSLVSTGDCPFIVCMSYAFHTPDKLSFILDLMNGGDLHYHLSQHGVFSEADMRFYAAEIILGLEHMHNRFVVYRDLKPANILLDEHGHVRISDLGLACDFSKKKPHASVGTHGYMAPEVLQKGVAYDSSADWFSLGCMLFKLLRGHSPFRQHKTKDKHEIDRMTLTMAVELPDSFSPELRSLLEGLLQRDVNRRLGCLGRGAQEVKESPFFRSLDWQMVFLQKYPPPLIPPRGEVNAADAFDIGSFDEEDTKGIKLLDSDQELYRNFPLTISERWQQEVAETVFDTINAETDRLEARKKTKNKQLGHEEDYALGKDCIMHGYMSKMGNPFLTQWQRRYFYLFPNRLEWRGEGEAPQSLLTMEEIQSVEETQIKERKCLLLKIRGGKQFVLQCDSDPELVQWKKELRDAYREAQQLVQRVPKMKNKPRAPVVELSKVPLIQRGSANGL

[2] = target: T2, bovine GRK5 (Bos taurus, UniProt P43249); experiment: Primary DSF inhibitor screen, GRK5; type: binding; settings: 10 μM compound; for ΔTm at 10 µM: read-out: ΔTm, primary screen, GRK5; for rank in the primary screen, GRK5: rank ordering of compounds in primary DSF screen
T2 construct: when using full-length kinases as the receptor[37] instead of isolated kinase domains; made in house

[3] = system: 224 kinases; design: method as in ChEMBL database; settings: ref ChEMBL database, cited from earlier work
[4] = target: T3, GRK1 (Bos taurus, UniProt P28327); experiment: DSF retest (confirmation), GRK1; type: binding, bovine; settings: for GRK1 Tm: 0.2 mg mL^–1 kinase; for GRK1 ΔTm: relative to intrinsic melting point of the kinase
T3 construct: Bovine GRK1_1–535, bovine and human GRK2S670A; made in house
T3 sequence (P28327 1-535): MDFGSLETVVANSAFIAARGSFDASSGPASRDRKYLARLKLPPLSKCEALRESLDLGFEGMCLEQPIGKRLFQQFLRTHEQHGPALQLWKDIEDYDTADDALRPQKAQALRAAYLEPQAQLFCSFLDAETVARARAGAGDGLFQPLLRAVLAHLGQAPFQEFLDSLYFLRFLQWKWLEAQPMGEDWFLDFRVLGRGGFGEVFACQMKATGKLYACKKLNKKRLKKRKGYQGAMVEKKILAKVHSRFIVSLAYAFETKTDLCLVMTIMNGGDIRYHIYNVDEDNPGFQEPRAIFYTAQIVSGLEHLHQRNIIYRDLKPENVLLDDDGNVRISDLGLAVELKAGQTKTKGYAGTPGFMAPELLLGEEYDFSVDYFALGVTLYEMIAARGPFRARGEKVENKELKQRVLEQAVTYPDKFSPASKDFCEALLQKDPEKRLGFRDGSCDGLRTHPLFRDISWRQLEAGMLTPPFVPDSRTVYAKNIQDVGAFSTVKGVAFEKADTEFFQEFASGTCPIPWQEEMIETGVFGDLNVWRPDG

[5] = target: T4, human GRK2S670A (Homo sapiens, UniProt P25098, S670A); experiment: Primary DSF (differential scanning fluorimetry) inhibitor screen, GRK2; type: binding; settings: 10 μM compound; for ΔTm, primary screen, GRK2 / ΔTm at 10 µM: 2 μM kinase, relative to DMSO control; for ΔTm at 10 µM: read-out: ΔTm, primary screen, GRK2; for rank in the primary screen, GRK2: rank ordering of compounds in primary DSF screen
T4 construct: when using full-length kinases as the receptor[37] instead of isolated kinase domains; made in house
T4 sequence (P25098 1-689 S670A): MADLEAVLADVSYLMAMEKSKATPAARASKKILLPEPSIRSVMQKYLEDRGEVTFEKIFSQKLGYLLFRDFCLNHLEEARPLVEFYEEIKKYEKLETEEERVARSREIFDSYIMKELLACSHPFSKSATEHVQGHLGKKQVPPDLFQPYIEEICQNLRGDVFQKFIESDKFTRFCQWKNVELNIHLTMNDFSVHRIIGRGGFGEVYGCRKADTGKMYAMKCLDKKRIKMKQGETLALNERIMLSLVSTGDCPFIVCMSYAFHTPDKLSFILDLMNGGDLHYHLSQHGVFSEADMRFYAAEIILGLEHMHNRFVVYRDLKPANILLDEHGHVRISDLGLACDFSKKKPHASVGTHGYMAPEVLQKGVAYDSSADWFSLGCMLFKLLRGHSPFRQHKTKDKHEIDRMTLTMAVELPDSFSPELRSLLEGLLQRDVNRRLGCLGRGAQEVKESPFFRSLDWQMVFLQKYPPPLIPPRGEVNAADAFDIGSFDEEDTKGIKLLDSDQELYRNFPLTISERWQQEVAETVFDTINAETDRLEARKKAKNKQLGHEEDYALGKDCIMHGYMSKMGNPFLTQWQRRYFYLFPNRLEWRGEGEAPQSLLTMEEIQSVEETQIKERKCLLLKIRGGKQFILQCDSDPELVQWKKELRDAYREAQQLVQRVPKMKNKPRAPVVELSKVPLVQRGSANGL

[6] = system: GRK1, 2, and 5 and PKA; experiment: Ssel selectivity score calculated from inhibition of GRK1, 2, 5 and PKA; settings: selectivity score from inhibition of GRK1, 2, 5 and PKA; <0.5 selective
[7] = target: T5, GRK2 (Homo sapiens, UniProt P25098, S670A); experiment: DSF retest (confirmation), GRK2; type: binding; settings: for GRK2 Tm: 0.2 mg mL^–1 kinase; for GRK2 ΔTm: relative to intrinsic melting point of the kinase
T5 construct: made in house
T5 sequence (P25098 1-689 S670A): T4 sequence (P25098 1-689 S670A)

[8] = target: T6, PKA (Mus musculus, UniProt P05132); experiment: PKA inhibition assay (ADP-Glo, CREBtide, 100 μM ATP); type: biochemical
T6 construct: His tag (inferred from pET15b vector and Ni-NTA column) (N); host or cells: E. coli Rosetta(DE3)pLysS

[9] = target: T3, GRK1; experiment: In vitro phosphorylation assay (tubulin, 5 μM ATP), GRK1; type: biochemical, bovine; settings: for IC50: read-out: GRK1 log IC50 (converted)
[10] = target: T7, GRK5 (Bos taurus, UniProt P43249); experiment: In vitro phosphorylation assay (tubulin, 5 μM ATP), GRK5; type: biochemical, bovine; settings: for IC50: read-out: GRK5 log IC50 (converted)
T7 construct: when using full-length kinases as the receptor[37] instead of isolated kinase domains; made in house

[11] = target: T8, protein kinase A (PKA) (Mus musculus, UniProt P05132); experiment: DSF retest (confirmation), PKA; type: binding; settings: for PKA Tm: 0.2 mg mL^–1 kinase; for PKA ΔTm: relative to intrinsic melting point of the kinase
T8 construct: His tag (inferred from pET15b vector and Ni-NTA column) (N); host or cells: E. coli Rosetta(DE3)pLysS
Protocol: Fourteen compounds (Figure 1a–c), including all GRK2 hits except staurosporine, and the most stabilizing pyrrolopyrimidine-containing compounds were obtained from GSK and retested using DSF on GRKs representing each vertebrate subfamily (GRK1, 2, and 5) (Table 1). […] The ability of these compounds to shift the Tm of the related AGC family kinase member protein kinase A (PKA) was also assessed (Table 1). In no case was ΔTm greater for PKA than for one of the tested GRKs. […]. There was no correlation for GRK1 (Figure 2c).
DSF was conducted using a ThermoFluor plate reader (Johnson & Johnson) in a buffer containing 20 mM HEPES, pH 7.0, 5 mM MgCl2, 2 mM DTT, and 1 mM CHAPS with 0.2 mg mL^–1 final concentration of GRK or PKA and 100 μM 1-anilinonaphthalene-8-sulfonic acid.[14]

[12] = target: T7, GRK5; experiment: DSF retest (confirmation), GRK5; type: binding, bovine; settings: for GRK5 Tm: 0.2 mg mL^–1 kinase; for GRK5 ΔTm: relative to intrinsic melting point of the kinase
[13] = 2 μM kinase, relative to DMSO control
[14] = logarithm of IC50 (−3.3 corresponds to 0.5 mM, footnote c), 438 nM PKA, 100 μM ATP, CREBtide, read-out: PKA log IC50 (converted)

T2 sequence (P43249 whole entry, the tested form may be a part): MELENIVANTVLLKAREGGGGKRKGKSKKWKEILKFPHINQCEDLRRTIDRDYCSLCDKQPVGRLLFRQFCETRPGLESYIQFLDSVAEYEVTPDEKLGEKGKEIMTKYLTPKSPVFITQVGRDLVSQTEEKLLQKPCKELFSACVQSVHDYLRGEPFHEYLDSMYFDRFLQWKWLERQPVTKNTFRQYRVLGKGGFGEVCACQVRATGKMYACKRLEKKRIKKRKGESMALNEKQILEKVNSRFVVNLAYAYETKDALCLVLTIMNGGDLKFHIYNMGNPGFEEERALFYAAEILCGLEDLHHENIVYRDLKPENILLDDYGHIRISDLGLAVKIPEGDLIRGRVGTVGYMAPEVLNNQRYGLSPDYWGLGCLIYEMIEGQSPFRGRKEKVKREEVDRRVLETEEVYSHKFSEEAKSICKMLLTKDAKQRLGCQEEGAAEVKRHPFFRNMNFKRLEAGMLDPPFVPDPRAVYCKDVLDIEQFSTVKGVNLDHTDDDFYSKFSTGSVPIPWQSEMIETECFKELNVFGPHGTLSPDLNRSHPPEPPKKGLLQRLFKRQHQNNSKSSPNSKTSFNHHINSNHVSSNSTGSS
T7 sequence (P43249 whole entry, the tested form may be a part): as above

SMILES: CC1=C(C(=O)Nc2cc(Cl)c3[nH]ncc3c2)C(c2ccc(C(F)(F)F)cc2)CC(=O)N1 (stereo not shown) [GSK466317A]
- less potent than GSK180736A against GRK2 ([1]; relative to GSK180736A): 2 log
- GRK2 fold (increase in potency relative to paroxetine) [1]: 0.040 fold
- ΔTm at 10 µM [2, 13]: 3.48 °C
- number of other AGC kinases inhibited by more than 50% ([3]; at 1 μM): more than 10
- GRK1 Tm [4]: 24.6 °C
- GRK1 ΔTm [4]: 4.7 °C
- ΔTm, primary screen, GRK2 [5]: 2.9 °C
- ΔTm at 10 µM [5]: 2.94 °C
- rank in the primary screen, GRK2 [5]: 8
- Ssel [6]: 1.001
- GRK2 Tm [7]: 45.0 °C
- GRK2 ΔTm [7]: 7.4 °C
- IC50 [8, 14]: 12.6 µM
- IC50 ([8]; read-out: IC50 against PKA): < 100 µM
- GRK1 fold (increase in potency relative to paroxetine) [9]: 0 fold
- GRK5 fold (increase in potency relative to paroxetine) [10]: 3.2 fold
- PKA Tm [11]: 50.6 °C
- PKA ΔTm [11]: 5.2 °C
- GRK5 Tm [12]: 28.0 °C
- GRK5 ΔTm [12]: 1.3 °C

SMILES: CC(C)COC(=O)c1ccc2c(c1)/C(=C/Nc1ccc(S(N)(=O)=O)cc1)C(=O)N2 [GW416981X]
- IC50 [1]: > 1000 µM
- ΔTm at 10 µM [2, 13]: 6.71 °C
- rank in the primary screen, GRK5 [2]: 15
- inhibition pattern in kinase cross-screening, in words [3]: strong inhibition of many of the 221 kinases evaluated
- GRK1 Tm [4]: 24.8 °C
- GRK1 ΔTm [4]: 4.9 °C
- Ssel [6]: 0.330
- GRK2 Tm [7]: 40.4 °C
- GRK2 ΔTm [7]: 2.8 °C
- IC50 [8, 14]: > 501 µM
- IC50 [9]: 1000 µM
- GRK1 fold (increase in potency relative to paroxetine) [9]: 0 fold
- IC50 [10]: 25.1 µM
- GRK5 fold (increase in potency relative to paroxetine) [10]: 5.0 fold
- PKA Tm [11]: 47.7 °C
- PKA ΔTm [11]: 2.3 °C
- GRK5 Tm [12]: 28.7 °C
- GRK5 ΔTm [12]: 2.0 °C

SMILES: CCn1c(-c2nonc2N)nc2c(C#CC(C)(C)O)nc(O[C@@H](CN)c3ccccc3)cc21 [GSK1007102B]
- IC50 [1]: 1 µM
- GRK2 fold (increase in potency relative to paroxetine) [1]: 1.3 fold
- ΔTm at 10 µM [2, 13]: 3.43 °C
- inhibition pattern in kinase cross-screening, in words [3]: strong inhibition of many of the 221 kinases evaluated
- GRK1 Tm [4]: 26.7 °C
- GRK1 ΔTm [4]: 6.8 °C
- ΔTm, primary screen, GRK2 [5]: 5.4 °C
- ΔTm at 10 µM [5]: 5.41 °C
- rank in the primary screen, GRK2 [5]: 1
- Ssel [6]: 0.917
- GRK2 Tm [7]: 49.3 °C
- GRK2 ΔTm [7]: 11.8 °C
- IC50 against PKA, in words [8]: nanomolar
- IC50 [8, 14]: 0.501 µM
- IC50 [9]: 63.1 µM
- GRK1 fold (increase in potency relative to paroxetine) [9]: 6 fold
- IC50 [10]: 3.16 µM
- GRK5 fold (increase in potency relative to paroxetine) [10]: 40 fold
- PKA Tm [11]: 52.2 °C
- PKA ΔTm [11]: 6.8 °C
- GRK5 Tm [12]: 28.7 °C
- GRK5 ΔTm [12]: 2.0 °C

SMILES: Fc1cccc(COc2ccc(Nc3ncnc4cc(-c5ccc[nH]5)sc34)cc2Cl)c1 [GW693881A]
- IC50 [1]: 200 µM
- GRK2 fold (increase in potency relative to paroxetine) [1]: 0.0063 fold
- ΔTm, primary screen, GRK5 [2, 13]: 6.9 °C
- ΔTm at 10 µM [2, 13]: 6.93 °C
- rank in the primary screen, GRK5 [2]: 12
- inhibition pattern in kinase cross-screening, in words [3]: strong inhibition of many of the 221 kinases evaluated
- GRK1 Tm [4]: 24.8 °C
- GRK1 ΔTm [4]: 4.9 °C
- Ssel [6]: 1.005
- GRK2 Tm [7]: 40.0 °C
- GRK2 ΔTm [7]: 2.5 °C
- IC50 [8, 14]: > 501 µM
- IC50 [9]: > 1000 µM
- IC50 [10]: 100 µM
- GRK5 fold (increase in potency relative to paroxetine) [10]: 1.3 fold
- PKA Tm [11]: 47.4 °C
- PKA ΔTm [11]: 2.0 °C
- GRK5 Tm [12]: 27.7 °C
- GRK5 ΔTm [12]: 0.9 °C
